{"source": "patent US20250176546A1", "about": "“ANTIMICROBIAL CaNCR PEPTIDE VARIANTS” (Donald Danforth Plant Science Center, priority 2022, published 2025)", "key": {"Botrytis cinerea": {"tested_on": "Botrytis cinerea", "experiment": "Antifungal 96-well plate assay with resazurin cell viability readout", "format": "cell-based", "conditions": "chemically synthesized peptides; 2-fold dilution series; 48 h incubation, then resazurin overnight; lowest concentration with no change in blue color", "procedure": "Antifungal activity of NCR13_AlaV1-V5 was assessed at different concentrations using a 2-fold dilution series of each peptide. Antifungal activity of each peptide was determined spectrophotometrically using the 96-well plate assay. Around 45 μL of each peptide at different concentrations was added to each well of the microtiter plate containing 45 μL of ˜[…] spore suspension. The quantitative fungal growth inhibition was determined by measuring the absorbance at 595 nm using a (Tecan Infinite M200 ProTecan Systems Inc., San Jose, CA) microplate reader after 48 h. The fungal cell viability was determined by the resazurin cell viability assay. After incubation of the pathogen/peptide mixture for 48 h, 10 μl of 0.1% resazurin solution was added to each well. After incubation of the mixture overnight, a change in the color of the resazurin dye from blue to pink or colorless indicated the presence of live fungal cells. The MIC for each peptide was the lowest concentration of each peptide at which no change in blue color occurred."}, "[1]": {"tested_on": "Tricophyton metagrophytes (26103)", "experiment": "In vitro antifungal activity (spectrophotometric) against human fungal pathogens", "conditions": "Pichia pastoris-expressed peptide, half-strength potato dextrose broth", "quoted_text": "(§1) The in vitro antifungal activity of these peptides was determined spectrophotometrically as described in previous publications (Sagaram et al. 2013: Islam et al. 2017) in half-strength potato dextrose broth."}, "[2]": {"tested_on": "Tricophyton rubrum (36381)", "experiment": "In vitro antifungal activity (spectrophotometric) against human fungal pathogens", "conditions": "Pichia pastoris-expressed peptide, half-strength potato dextrose broth", "quoted_text": "as §1"}, "Candida albicans (33795)": {"tested_on": "Candida albicans (33795)", "experiment": "In vitro antifungal activity (spectrophotometric) against human fungal pathogens", "conditions": "Pichia pastoris-expressed peptide, half-strength potato dextrose broth", "quoted_text": "as §1"}, "Candida auris (38883)": {"tested_on": "Candida auris (38883)", "experiment": "In vitro antifungal activity (spectrophotometric) against human fungal pathogens", "conditions": "Pichia pastoris-expressed peptide, half-strength potato dextrose broth", "quoted_text": "as §1"}, "Candida glabrata (38827)": {"tested_on": "Candida glabrata (38827)", "experiment": "In vitro antifungal activity (spectrophotometric) against human fungal pathogens", "conditions": "Pichia pastoris-expressed peptide, half-strength potato dextrose broth", "quoted_text": "as §1"}}, "note": "Like-named read-outs stand apart in the source and are kept apart here. Peptide text beside a SMILES is read from it."}
{"molecule": "CC(C)[C@H](NC(=O)[C@H](CS)NC(=O)[C@H](CCCCN)NC(=O)[C@H](CS)NC(=O)[C@H](C)NC(=O)[C@H](C)NC(=O)[C@H](C)NC(=O)[C@H](C)NC(=O)[C@H](CS)NC(=O)[C@H](CCCCN)NC(=O)[C@@H]1CCCN1C(=O)[C@@H](NC(=O)[C@H](CCCCN)NC(=O)[C@@H]1CCCN1C(=O)[C@H](CCCCN)NC(=O)[C@H](CCCNC(=N)N)NC(=O)[C@H](CS)NC(=O)[C@H](C)NC(=O)[C@H](Cc1ccccc1)NC(=O)[C@H](CCCCN)NC(=O)[C@H](CCCCN)NC(=O)[C@H](CS)NC(=O)[C@H](CC(=O)O)NC(=O)[C@H](CCCCN)NC(=O)[C@H](CC(=O)O)NC(=O)[C@H](CO)NC(=O)[C@H](CCC(N)=O)NC(=O)[C@H](CS)NC(=O)[C@@H]1CCCN1C(=O)[C@H](CCCCN)NC(=O)[C@@H](N)[C@@H](C)O)C(C)C)C(=O)N[C@@H](CCCNC(=N)N)C(=O)O", "note": "[NCR13_AlaV5] (H-TKPCQSDKDCKKFACRKPKVPKCAAAACKCVR-OH; N-terminus and C-terminus assumed)", "values": [{"measurement": "MIC (μM) Fusarium graminearum", "setting": "Fusarium graminearum; 48 h", "result": 6, "unit": "µM"}]}
{"molecule": "TKPCQSDKDCKKFACAAAAVPKCINGFCKCVR (SEQ ID NO: 43) [NCR13_AlaV3]", "values": [{"measurement": "MIC (μM) Botrytis cinerea", "setting": "Botrytis cinerea", "result": "Inactive"}, {"measurement": "MIC (μM) Fusarium graminearum", "setting": "Fusarium graminearum", "result": "Inactive"}]}
{"molecule": "CC[C@H](C)[C@H](NC(=O)[C@H](CS)NC(=O)[C@H](CCCCN)NC(=O)[C@@H]1CCCN1C(=O)[C@@H](NC(=O)[C@H](CCCCN)NC(=O)[C@@H]1CCCN1C(=O)[C@H](CCCCN)NC(=O)[C@H](CCCNC(=N)N)NC(=O)[C@H](CS)NC(=O)[C@H](C)NC(=O)[C@H](Cc1ccccc1)NC(=O)[C@H](CCCCN)NC(=O)[C@H](CCCCN)NC(=O)[C@H](CS)NC(=O)[C@H](C)NC(=O)[C@H](C)NC(=O)[C@H](C)NC(=O)[C@H](C)NC(=O)[C@H](C)NC(=O)[C@H](CS)NC(=O)[C@@H]1CCCN1C(=O)[C@H](CCCCN)NC(=O)[C@@H](N)[C@@H](C)O)C(C)C)C(=O)N[C@@H](CC(N)=O)C(=O)NCC(=O)N[C@@H](Cc1ccccc1)C(=O)N[C@@H](CS)C(=O)N[C@@H](CCCCN)C(=O)N[C@@H](CS)C(=O)N[C@H](C(=O)N[C@@H](CCCNC(=N)N)C(=O)O)C(C)C", "note": "[NCR13_AlaV1] (H-TKPCAAAAACKKFACRKPKVPKCINGFCKCVR-OH; N-terminus and C-terminus assumed)", "values": [{"measurement": "MIC (μM) Fusarium graminearum", "setting": "Fusarium graminearum; 48 h", "result": 6, "unit": "µM"}]}
{"molecule": "CC[C@H](C)[C@H](NC(=O)[C@H](CS)NC(=O)[C@H](C)NC(=O)[C@H](C)NC(=O)[C@H](C)NC(=O)[C@H](CCCCN)NC(=O)[C@@H]1CCCN1C(=O)[C@H](CCCCN)NC(=O)[C@H](CCCNC(=N)N)NC(=O)[C@H](CS)NC(=O)[C@H](C)NC(=O)[C@H](Cc1ccccc1)NC(=O)[C@H](CCCCN)NC(=O)[C@H](CCCCN)NC(=O)[C@H](CS)NC(=O)[C@H](CC(=O)O)NC(=O)[C@H](CCCCN)NC(=O)[C@H](CC(=O)O)NC(=O)[C@H](CO)NC(=O)[C@H](CCC(N)=O)NC(=O)[C@H](CS)NC(=O)[C@@H]1CCCN1C(=O)[C@H](CCCCN)NC(=O)[C@@H](N)[C@@H](C)O)C(=O)N[C@@H](CC(N)=O)C(=O)NCC(=O)N[C@@H](Cc1ccccc1)C(=O)N[C@@H](CS)C(=O)N[C@@H](CCCCN)C(=O)N[C@@H](CS)C(=O)N[C@H](C(=O)N[C@@H](CCCNC(=N)N)C(=O)O)C(C)C", "note": "[NCR13_AlaV4] (H-TKPCQSDKDCKKFACRKPKAAACINGFCKCVR-OH; N-terminus and C-terminus assumed)", "values": [{"measurement": "MIC (μM) Botrytis cinerea", "setting": "Botrytis cinerea", "result": "Inactive"}, {"measurement": "MIC (μM) Fusarium graminearum", "setting": "Fusarium graminearum; 48 h", "result": 12, "unit": "µM"}]}
{"molecule": "CC[C@H](C)[C@H](NC(=O)[C@H](CS)NC(=O)[C@H](CCCCN)NC(=O)[C@@H]1CCCN1C(=O)[C@@H](NC(=O)[C@H](CCCCN)NC(=O)[C@@H]1CCCN1C(=O)[C@H](CCCCN)NC(=O)[C@H](CCCNC(=N)N)NC(=O)[C@H](CS)NC(=O)[C@H](C)NC(=O)[C@H](Cc1ccccc1)NC(=O)[C@H](CCCCN)NC(=O)[C@H](CCCCN)NC(=O)[C@H](CS)NC(=O)[C@H](CC(=O)O)NC(=O)[C@H](CCCCN)NC(=O)[C@H](CC(=O)O)NC(=O)[C@H](CO)NC(=O)[C@H](CCC(N)=O)NC(=O)[C@H](CS)NC(=O)[C@@H]1CCCN1C(=O)[C@H](CCCCN)NC(=O)[C@@H](N)[C@@H](C)O)C(C)C)C(=O)N[C@@H](CC(N)=O)C(=O)NCC(=O)N[C@@H](Cc1ccccc1)C(=O)N[C@@H](CS)C(=O)N[C@@H](CCCCN)C(=O)N[C@@H](CS)C(=O)N[C@H](C(=O)N[C@@H](CCCNC(=N)N)C(=O)O)C(C)C", "note": "[NCR13, reference compound] (H-TKPCQSDKDCKKFACRKPKVPKCINGFCKCVR-OH; N-terminus and C-terminus assumed)", "values": [{"measurement": "MIC (μM) Fusarium graminearum", "setting": "Fusarium graminearum; 48 h", "result": 6, "unit": "µM"}]}
{"molecule": "TKPCQSDKDCAAAACRKPKVPKCINGFCKCVR (SEQ ID NO: 42) [NCR13_AlaV2]", "values": [{"measurement": "MIC (μM) Botrytis cinerea", "setting": "Botrytis cinerea", "result": "Inactive"}, {"measurement": "MIC (μM) Fusarium graminearum", "setting": "Fusarium graminearum", "result": "Inactive"}]}
{"molecule": "CaNCR13: Wild-type nodule specific cysteine rich peptide from chickpea, SEQ ID NO: 1, expressed in Pichia pastoris and purified by FPLC and HPLC (TKPCQSDKDCKKFACRKPKVPKCINGFCKCVR; listed as Cicer arietinum)", "values": [{"measurement": "MIC", "setting": "[1]", "result": 0.41, "unit": "µM"}, {"measurement": "MIC", "setting": "[2]", "result": 3.2, "unit": "µM"}, {"measurement": "MIC", "setting": "Candida albicans (33795)", "result": 3.2, "unit": "µM"}, {"measurement": "MIC", "setting": "Candida auris (38883)", "result": 6.4, "unit": "µM"}, {"measurement": "MIC", "setting": "Candida glabrata (38827)", "result": 0.41, "unit": "µM"}]}
